The values below come from patent US10765625B2, “Knottin-drug conjugates and methods of using the same” (THE BOARD OF TRUSTEES OF THE LELAND STANFORD JUNIOR …, priority 2016, dated 2020).

As usually defined, the IC50 is the concentration needed to halve the response being measured.

Assay [1] has as its system U87MG cells. The experiment in a line: Competition binding assay with AF488-labeled EETI-2.5F (AF488-1), flow cytometry. The conditions noted are these: competition with 1 nM AF488-1, 4° C., 3 hours, read-out: IC50 (nM), binding affinity. The protocol:
Once the knottin-drug conjugates 5a-d were prepared, their binding affinity to U87MG glioblastoma cells, which are known to have elevated expression of tumor-associated integrins, was tested. […] To measure the relative binding affinities of knottins 1 and 2 and KDCs 5a-d, competition binding assays were performed using AlexaFluor 488-conjugated EETI-2.5F (AF488-1) as previously described (J. W. Kim, et al., J. Am. Chem. Soc. 2015, 137, 6-9). Cells (5×10^4 per sample) were detached with 0.05% Trypsin-EDTA, washed with IBB (25 mM Tris pH 7.4, 150 mM NaCl, 2 mM CaCl2, 1 mM MgCl2, 1 mM MnCl2, and 0.1% bovine serum albumin), and incubated with 1 nM AF488-1 and varying concentrations of competitors in 800 μL of IBB at 4° C. for 3 hours. The cells were washed twice with 800 μL of PBSA (phosphate buffered saline containing 0.1% bovine serum albumin) and the fluorescence of the surface-bound AF488-1 was determined using flow cytometry. The fluorescence was normalized to that of cells treated with AF488-1 alone to obtain the fraction bound. Half-maximal inhibitory concentration (IC50) values were determined by nonlinear regression analysis. Error bars represent the standard deviation of experiments performed in triplicate.
On the technique in general: Flow cytometry measures light scatter and fluorescence of single cells or particles in a stream.

In assay [2] the test system is U87MG cells. The experiment in a line: Integrin-blocking competition: cell proliferation (CCK-8) after pre-treatment with EETI-2.5F (1). The assay is classed as cell-based. The conditions noted are these: 1 μM 1, 3 h pre-treatment and co-treatment. The protocol:
(§1) U87MG, and PANC-1 cells were grown in Dulbecco's Modified Eagle Medium (DMEM) with 10% fetal bovine serum (FBS) and 1% penicillin/streptomycin. MDA-MB-468 cells were grown in DMEM and Ham's F-12 medium (DMEM/F12) with 10% FBS and 1% penicillin/streptomycin. A2780 and BxPC3 cells were grown in Roswell Park Memorial Institute medium (RPMI) 1640+L-glutamine, with 10% FBS and 1% penicillin/streptomycin. D270 cells were grown in MEM (Richter's modification, no phenol red) with 10% FBS and 0.1% Gentamicin. Unless otherwise specified, cells were incubated at 37° C., 5% CO2. Flow cytometry was performed using an EMD Millpore Guava EasyCyte 8HT flow cytometer and the resulting data were evaluated using FlowJo software provided by TreeStar, Inc. Cell proliferation was measured using the Dojindo Cell Counting Kit-8 by replacing the media in each well with 100 μL of media containing 10% WST-8. After incubation for 1 h at 37° C., absorbance, A, at 450 nm was measured with a BioTek Synergy H4 microtiter plate reader. The background signal of CCK-8 alone was subtracted from all samples. Cell proliferation was then expressed as a percentage of absorbance relative to the control of untreated cells (Equation 2). Nonlinear regression analysis was performed using GraphPad Prism.
One possible explanation for the apparent hENT1-independence of 5d is that its route of internalization could be integrin-mediated. The role of integrin-binding in the biological potency and hENT1-independence of 5d was determined. A competition experiment was carried out in which U87MG cells were pre-treated with unconjugated EETI-2.5F (1) in order to block integrins on the cell surface. The role of integrin-binding was studied by measuring the proliferation of U87MG cells that had been pre-treated with EETI-2.5F (1) when exposed to increasing doses of 3 and KDCs 5a, 5c, and 5d. […] Media used to prepare varying concentrations of drug, protein, or protein-drug conjugate also contained 1 μM of 1. Prior to treatment, cells were incubated for 3 h at 37° C., 5% CO2 with fresh media containing 1 μM 1. After this pre-treatment, cells were incubated with varying concentrations of 5a, 5c, or 5d for 24 h and then media was replaced with fresh media and cells were incubated for an additional 48 h. Cell proliferation was measured using the Cell Counting Kit-8 by replacing the media in each well with 100 μL of media containing 10% WST-8. After incubation for 1 h at 37° C., absorbance at 450 nm was measured with a Synergy H4 microtiter plate reader. Cell proliferation was measured according to the method described in Section 1.3. Error bars represent the standard deviation of experiments performed in triplicate.

The test system of assay [3] is U87MG cells. The experiment in a line: Premature drug release study: cell proliferation (CCK-8) with hENT1 inhibitor 6 co-administered. The assay is classed as cell-based. To be noted: for Effect of hENT1 inhibitor 6 on potency (ED50) (in words): U87MG cells, increasing concentrations of 6 up to 10 μM; for Fold Increase in ED50 in U87MG Cells: ED50 with 6 / ED50 without 6, minus 1. The protocol:
as §1
The relative extent of premature drug-release in the cases of 5a, 5c, and 5d was next determined in order to identify the linker best-suited for delivering the drug payload intracellularly. An established technique for blocking the cellular uptake of Gemcitabine by using S (4-nitrobenzyl)-6-thioinosine (6) was employed, which is known to inhibit human equilibrative nucleoside transporters, such as hENT1. Because hENT1 is a critical regulator of the cellular internalization of Gemcitabine, it was reasoned that by inhibiting its activity with 6, the cytotoxic effect of any drug payload that was released in the extracellular environment could be diminished. It was anticipated that this would allow the distinction between KDCs that were potent due to the undesirable release of Gemcitabine outside of the cell from those that released Gemcitabine intracellularly (FIG. 6). The extent of premature drug release in the extracellular environment was studied by inhibiting activity of nucleoside transporters (such as hENT1) of U87MG cells through the use of the hENT1 inhibitor S-(4-nitrobenzyl)-6-thioinosine (6). […] In a similar fashion, it was expected that for KDCs which released a significant amount of the drug payload in the extracellular environment, an increase in the concentration of 6 should result in a concomitant increase in ED50 value.
Media used to prepare varying concentrations of drug, protein, or protein-drug conjugate also contained varying concentrations of the hENT1 inhibitor, 6. Additionally, prior to treatment, cell were incubated at 37° C., 5% CO2 with fresh media containing the varying concentrations of 6 for 2 h. Cell proliferation was measured using the Cell Counting Kit-8 by replacing the media in each well with 100 μL of media containing 10% WST-8. After incubation for 1 h at 37° C., absorbance at 450 nm was measured with a Synergy H4 microtiter plate reader. ED50 values were determined by nonlinear regression analysis. Example dose-response curves for 3 (FIG. 7) and 5d (FIG. 8) are provided. Cell proliferation was measured according to the method described in Section 1.3. Error bars represent the standard deviation of experiments performed in triplicate.
These values were normalized as Fold Increase in ED50 (defined in Equation 2) by dividing the ED50 of each drug when 6 was co-administered at concentration=C by the ED50 of that same drug when no 6 was added, then subtracting 1 (thus, a “0-fold increase” would mean no increase, while a “1-fold increase” would mean that the ED50 value had doubled). Fold Increase in ED50 for each drug at each concentration of 6 is provided in Table 5, and these values were used to generate FIG. 9.

Assay [4] deals with U87MG cells. The experiment in a line: Cell proliferation, CCK-8 colorimetric assay. The format is cell-based. The protocol: as §1
Next, the potency of each KDC was tested in a cell-proliferation experiment. […] Cells were seeded in a 96-well plate at a density of 2,500 cells per well and grown overnight at 37° C., 5% CO2 in DMEM with 10% FBS and 1% penicillin/streptomycin. Cells were subsequently treated with 100 μL of fresh media, containing varying concentrations of drug, protein, or protein-drug conjugate and incubated for 4 d at 37° C., 5% CO2. Cell proliferation was measured according to the method described in Section 1.3. Error bars represent the standard deviation of experiments performed in triplicate. […] Given that the linker must be cleaved to release free Gemcitabine in order for the payload to become active, the low potency of 5b can be explained by the greater stability of the carbamate group as compared to the other linkers tested.
(In general: Tetrazolium assays rely on reduction of a dye to a coloured formazan, in cell work by metabolically active cells.)

The test system of assay [5] is A2780 ovarian cancer cells. The experiment in a line: Cell proliferation, CCK-8 colorimetric assay. The conditions noted are these: Homo sapiens, 96 h, 4 d after treatment, read-out: ED50 (nM), cell growth inhibition. The format is cell-based. The protocol:
as §1
(§2) Having identified KDC 5d as a potent inhibitor of U87MG cells with desirable payload-release properties, its efficacy against a variety of other cell lines in comparison with Gemcitabine (3) was next tested. Cells were seeded in a 96-well plate at a density of 2,500 cells per well and grown overnight at 37° C., 5% CO2 in the media described in Section 1.3. Cells were subsequently treated with 100 μL of fresh media, containing 50 nM of 3 or 5d. Cells were incubated at 37° C., 5% CO2 for 4 d. Cell proliferation was measured using the Cell Counting Kit-8 by replacing the media in each well with 100 μL of media containing 10% WST-8. After incubation for 1 h at 37° C., absorbance at 450 nm was measured with a Synergy H4 microtiter plate reader. Cell proliferation was measured according to the method described in Section 1.3. Error bars represent the standard deviation of experiments performed in triplicate.

Assay [6] deals with PANC-1 pancreatic cancer cells. The experiment in a line: Cell proliferation, CCK-8 colorimetric assay. The assay is classed as cell-based. To be noted: Homo sapiens, 96 h, 4 d after treatment, read-out: ED50 (nM), cell growth inhibition. The protocol:
as §1, §2

In assay [7] the test system is MDA-MB-468 breast cancer cells. The experiment in a line: Cell proliferation, CCK-8 colorimetric assay. The format is cell-based. The conditions noted are these: Homo sapiens, MDA-MB-468, 96 h, 4 d after treatment, read-out: ED50 (nM), cell growth inhibition. The protocol: as §1, §2
Assay [8] concerns D270 glioblastoma cells. The experiment in a line: Cell proliferation, CCK-8 colorimetric assay. To be noted: 96 h, 4 d after treatment, read-out: ED50 (nM), cell growth inhibition. The format is cell-based. The protocol: as §1, §2
The test system of assay [9] is BxPC3 pancreatic cancer cells. The experiment in a line: Cell proliferation, CCK-8 colorimetric assay. The assay is classed as cell-based. To be noted: Homo sapiens, BXPC-3, 96 h, 4 d after treatment, read-out: ED50 (nM), cell growth inhibition. The protocol: as §1, §2

Read-outs that look alike come from different tables or passages of the source.

As to `CC(C)C[C@@H]1NC(=O)[C@@H]2CSSC[C@@H](C(=O)NCC(=O)O)NC(=O)[C@H](Cc3ccccc3)NC(=O)CNC(=O)[C@H](CC(N)=O)NC(=O)[C@@H]3CCCN3C(=O)CNC(=O)[C@@H]3CSSC[C@H](NC(=O)[C@H]([C@@H](C)O)NC(=O)[C@H](CC(C)C)NC(=O)[C@@H]4CCCN4C(=O)[C@@H]4CCCN4C(=O)[C@H](CC(N)=O)NC(=O)[C@H](CC(=O)O)NC(=O)CNC(=O)[C@H](CCCNC(=N)N)NC(=O)[C@@H]4CCCN4C(=O)[C@H](CCCNC(=N)N)NC(=O)[C@@H]4CCCN4C(=O)[C@@H](NC(=O)CN)CSSC[C@H](NC(=O)CNC(=O)[C@H](C)NC1=O)C(=O)N[C@@H](C(C)C)C(=O)N3)C(=O)N[C@@H](CCCn1cc(CCC(=O)Nc3ccn([C@@H]4O[C@H](CO)[C@@H](O)C4(F)F)c(=O)n3)nn1)C(=O)N[C@@H](CCC(N)=O)C(=O)N[C@@H](CC(=O)O)C(=O)N[C@@H](CO)C(=O)N[C@@H](CC(=O)O)C(=O)N2` [5c], the IC50 in [1] was 2.8 ± 0.2 nM. Besides, the “Effect of integrin blocking by pre-treatment with 1 on potency (in words)” value in [2] is recorded as “did not diminish the potency”. Besides, the “Effect of hENT1 inhibitor 6 on potency (ED50) (in words)” value in assay [3] was “much less sensitive”. Further, the “Fold Increase in ED50 in U87MG Cells” value in [3] ([6] = 0 nM) is listed as 0; in assay [3] ([6] = 1 nM) it was 0.5 ± 0.2; in assay [3] ([6] = 10 nM) it was 1.0 ± 0.2; in [3] ([6] = 100 nM), 7.8 ± 4.8; in [3] ([6] = 1000 nM) it was 18.0 ± 5.2; in [3] ([6] = 10000 nM), 31.1 ± 5.1. Also, in assay [4] (U87MG cells, 4 d), the “Potency / growth inhibition in U87MG cells (in words)” value was “low-nanomolar ED50 values”. Also, the EC50 in assay [4] (U87MG cells, 4 d incubation, vs untreated control, read-out: ED50 (nM), potency) was determined as 8.9 ± 1.2 nM.
As for `Nc1ccn([C@@H]2O[C@H](CO)[C@@H](O)C2(F)F)c(=O)n1` [compound 3, Gemcitabine, reference compound], the “Effect of integrin blocking by pre-treatment with 1 on potency (in words)” value in assay [2] is “no effect on potency”. The EC50 in assay [5] was 0.5 ± 0.02 nM; in [6] it was 52.8 ± 4.9 nM; in assay [7] it was 17.3 ± 6.8 nM; in assay [8], 1.5 ± 0.4 nM; in assay [9], 18.4 ± 1.3 nM; in assay [4] (Homo sapiens, U-87 MG, 96 h, U87MG cells, 4 d incubation, vs untreated control, read-out: ED50 (nM), potency), 1.1 ± 1.4 nM. The EC50 in assay [4] (Homo sapiens, U-87 MG, 96 h, U87MG glioblastoma, 4 d after treatment, read-out: ED50 (nM), cell growth inhibition) is 1.7 ± 1.4 nM. The “Effect of hENT1 inhibitor 6 on potency (ED50) (in words)” value in assay [3] is given as “increased significantly”. Also, the “Fold Increase in ED50 in U87MG Cells” value is reported as 0 in [3] ([6] = 0 nM); 0.2 ± 0.4 in assay [3] ([6] = 1 nM); 1.5 ± 0.1 in assay [3] ([6] = 10 nM); 15.8 ± 0.3 in assay [3] ([6] = 100 nM); 44.7 ± 0.3 in [3] ([6] = 1000 nM); 128.6 ± 2.8 in [3] ([6] = 10000 nM).
